Reference: patent US20260125371A1, “METHOD FOR INHIBITING CLOSTRIDIOIDES DIFFICILE SPORE GERMINATION” (UNIVERSITY OF NOTRE DAME DU LAC, priority 2022, published 2026)
Values after ≈ are worked out from the molar mass of the structure shown. Read-outs that look alike come from different tables or passages of the source.

Experiments:
P. aeruginosa ATCC27853 = assay: MIC against P. aeruginosa; assay type: cell-based; settings: Pseudomonas aeruginosa; P. aeruginosa ATCC27853; read-out: MIC
C. difficile ATCC 43255 [1] = assay: Determination of minimal-inhibitory concentrations (microdilution), C. difficile ATCC 43255; assay type: cell-based, Clostridioides difficile; settings: Clostridioides difficile
K. pneumoniae ATCC700603 = assay: MIC against K. pneumoniae; assay type: cell-based; settings: Klebsiella pneumoniae; K. pneumoniae ATCC700603; read-out: MIC
E. aerogenes ATCC35029 = assay: MIC against E. aerogenes; assay type: cell-based; settings: Klebsiella aerogenes; E. aerogenes ATCC35029; read-out: MIC
A. baumanii ATCC17961 = assay: MIC against A. baumanii; assay type: cell-based; settings: Acinetobacter baumannii; A. baumanii ATCC17961; read-out: MIC
C. difficile ATCC 43255 [2] = assay: Minimal-bactericidal concentration (MBC); assay type: cell-based, Clostridioides difficile; settings: MBC/MIC≤4 indicates bactericidal
E. faecium = assay: MIC against E. faecium strains; assay type: cell-based
S. aureus = assay: MIC against S. aureus strains; assay type: cell-based
[3] = test system: Bifidobacterium longum HM-846; settings: cited from earlier work
C. difficile strains = settings: cited from earlier work
[4] = test system: Lactobacillus gasseri HM-644; settings: cited from earlier work
[5] = test system: Lactobacillus reuteri HM-102; settings: cited from earlier work
[6] = Enterococcus faecium, read-out: MIC

SMILES: O=[N+]([O-])c1cnc(-c2nc(-c3ccc(OC4CCCC4)cc3)no2)[nH]1 [Compound 57, 3-(4-(Cyclopentyloxy)phenyl)-5-(4-nitro-1H-imidazol-2-yl)-1,2,4-oxadiazole]
- MIC (P. aeruginosa ATCC27853): > 128 µg/mL
- MIC (C. difficile ATCC 43255 [1]; ATCC43255, 24 h, C. difficile ATCC 43255, 24 h, read-out: MIC (μg/mL) 24 h): 0.125 µg/mL (≈ 0.366 µM)
- MIC (C. difficile ATCC 43255 [1]; ATCC43255, C. difficile ATCC43255, read-out: ATCC43255 MIC): 0.25 µg/mL (≈ 0.732 µM)
- MIC (C. difficile ATCC 43255 [1]; ATCC43255, C. difficile ATCC43255, read-out: MIC): 0.25 µg/mL (≈ 0.732 µM)
- MIC (C. difficile ATCC 43255 [1]; ATCC43255, Table 1, strain ATCC 43255, read-out: MIC C. difficile): 0.25 µg/mL (≈ 0.732 µM)
- MIC (C. difficile ATCC 43255 [1]; ATCC43255, strain ATCC43255, read-out: MIC): 0.25 µg/mL (≈ 0.732 µM)
- MIC (K. pneumoniae ATCC700603): > 128 µg/mL
- MIC (E. aerogenes ATCC35029): > 128 µg/mL
- MIC (A. baumanii ATCC17961): > 128 µg/mL
- bactericidal or bacteriostatic (C. difficile ATCC 43255 [2]): bactericidal
- MIC (E. faecium; E. faecium 106 (Van R)): 128 µg/mL (≈ 375 µM)
- MIC (E. faecium; [6]): 128 µg/mL (≈ 375 µM)
- MIC (S. aureus; Staphylococcus aureus, S. aureus VRS1, read-out: MIC): 64 µg/mL (≈ 188 µM)
- MIC (S. aureus; Staphylococcus aureus, S. aureus VRS2, read-out: MIC): 32 µg/mL (≈ 93.8 µM)

SMILES: Cc1ncc([N+](=O)[O-])n1CCO [MTZ, metronidazole]
- MIC [3]: 0.05 µg/mL (≈ 0.292 µM)
- IMIC50 (101 strains) (C. difficile strains; 101 C. difficile strains): 0.5 µg/mL
- MIC (C. difficile strains; C. difficile 23828, resistant to FDX): 0.5 µg/mL (≈ 2.92 µM)
- MIC (C. difficile strains; C. difficile 24531, resistant to VAN): 0.5 µg/mL (≈ 2.92 µM)
- MIC (C. difficile strains; C. difficile 26675, resistant to MTZ): 4 µg/mL (≈ 23.4 µM)
- MIC (C. difficile strains; C. difficile BAA-1803): 0.5 µg/mL (≈ 2.92 µM)
- MIC (C. difficile strains; C. difficile BAA-1870): 0.5 µg/mL (≈ 2.92 µM)
- MIC50 (C. difficile strains; C. difficile strains of Table 4): 0.5 µg/mL (≈ 2.92 µM)
- MIC (C. difficile strains; strain BAA-1803): 0.5 µg/mL (≈ 2.92 µM)
- MIC (C. difficile strains; strain BAA-1870): 0.5 µg/mL (≈ 2.92 µM)
- MIC (C. difficile strains; strain HM-745): 0.5 µg/mL (≈ 2.92 µM)
- MIC (C. difficile strains; strain HM-747): 0.5 µg/mL (≈ 2.92 µM)
- MIC (C. difficile strains; strain NR-13430): 0.5 µg/mL (≈ 2.92 µM)
- MIC (C. difficile strains; strain NR-13431): 0.5 µg/mL (≈ 2.92 µM)
- MIC (C. difficile strains; strain NR-13433): 0.5 µg/mL (≈ 2.92 µM)
- MIC (C. difficile strains; strain NR-13434): 0.5 µg/mL (≈ 2.92 µM)
- MIC (C. difficile strains; strain NR-13435): 0.5 µg/mL (≈ 2.92 µM)
- MIC (C. difficile strains; strain NR-13436): 0.5 µg/mL (≈ 2.92 µM)
- MIC (C. difficile strains; strain NR-13437): 0.5 µg/mL (≈ 2.92 µM)
- MIC (C. difficile strains; strain NR-13438): 0.5 µg/mL (≈ 2.92 µM)
- MIC (C. difficile strains; strain NR-13553): 0.5 µg/mL (≈ 2.92 µM)
- MIC (C. difficile strains; strain NR-32883): 0.5 µg/mL (≈ 2.92 µM)
- MIC (C. difficile strains; strain NR-32884): 0.5 µg/mL (≈ 2.92 µM)
- MIC (C. difficile strains; strain NR-32885): 0.5 µg/mL (≈ 2.92 µM)
- MIC (C. difficile strains; strain NR-32886): 0.5 µg/mL (≈ 2.92 µM)
- MIC (C. difficile strains; strain NR-32888): 0.5 µg/mL (≈ 2.92 µM)
- MIC (C. difficile strains; strain NR-32890): 0.5 µg/mL (≈ 2.92 µM)
- MIC (C. difficile strains; strain NR-32892): 0.5 µg/mL (≈ 2.92 µM)
- MIC (C. difficile strains; strain NR-32897): 0.5 µg/mL (≈ 2.92 µM)
- MIC (C. difficile strains; strain NR-32903): 0.5 µg/mL (≈ 2.92 µM)
- MIC (C. difficile strains; strain NR-32904): 0.5 µg/mL (≈ 2.92 µM)
- MIC (C. difficile strains; strain NR-49277): 0.5 µg/mL (≈ 2.92 µM)
- MIC (C. difficile strains; strain NR-49278): 0.5 µg/mL (≈ 2.92 µM)
- MIC (C. difficile strains; strain NR-49282): 0.5 µg/mL (≈ 2.92 µM)
- MIC (C. difficile strains; strain NR-49283): 0.5 µg/mL (≈ 2.92 µM)
- MIC (C. difficile strains; strain NR-49284): 0.5 µg/mL (≈ 2.92 µM)
- MIC (C. difficile strains; strain NR-49285): 0.5 µg/mL (≈ 2.92 µM)
- MIC (C. difficile strains; strain NR-49287): 0.5 µg/mL (≈ 2.92 µM)
- MIC (C. difficile strains; strain NR-49288): 0.5 µg/mL (≈ 2.92 µM)
- MIC (C. difficile strains; strain NR-49289): 0.5 µg/mL (≈ 2.92 µM)
- MIC (C. difficile strains; strain NR-49293): 0.5 µg/mL (≈ 2.92 µM)
- MIC (C. difficile strains; strain NR-49295): 0.5 µg/mL (≈ 2.92 µM)
- MIC (C. difficile strains; strain NR-49296): 0.5 µg/mL (≈ 2.92 µM)
- MIC (C. difficile strains; strain NR-49297): 0.5 µg/mL (≈ 2.92 µM)
- MIC (C. difficile strains; strain NR-49299): 0.5 µg/mL (≈ 2.92 µM)
- MIC (C. difficile strains; strain NR-49300): 0.5 µg/mL (≈ 2.92 µM)
- MIC (C. difficile strains; strain NR-49301): 0.5 µg/mL (≈ 2.92 µM)
- MIC (C. difficile strains; strain NR-49303): 0.5 µg/mL (≈ 2.92 µM)
- MIC (C. difficile strains; strain NR-49304): 0.5 µg/mL (≈ 2.92 µM)
- MIC (C. difficile strains; strain NR-49306): 0.5 µg/mL (≈ 2.92 µM)
- MIC (C. difficile strains; strain NR-49307): 0.5 µg/mL (≈ 2.92 µM)
- MIC (C. difficile strains; strain NR-49308): 0.5 µg/mL (≈ 2.92 µM)
- MIC (C. difficile strains; strain NR-49311): 0.5 µg/mL (≈ 2.92 µM)
- MIC (C. difficile strains; strain NR-49312): 0.5 µg/mL (≈ 2.92 µM)
- MIC (C. difficile strains; strain NR-49313): 0.5 µg/mL (≈ 2.92 µM)
- MIC (C. difficile strains; strain NR-49314): 0.5 µg/mL (≈ 2.92 µM)
- MIC (C. difficile strains; strain NR-49315): 0.5 µg/mL (≈ 2.92 µM)
- MIC (C. difficile strains; strain NR-49316): 0.5 µg/mL (≈ 2.92 µM)
- MIC (C. difficile strains; strain NR-49317): 0.5 µg/mL (≈ 2.92 µM)
- MIC (C. difficile strains; strain NR-49319): 0.5 µg/mL (≈ 2.92 µM)
- MIC (C. difficile strains; strain NR-49320): 0.5 µg/mL (≈ 2.92 µM)
- MIC (C. difficile strains; strain NR-49321): 0.5 µg/mL (≈ 2.92 µM)
- MIC (C. difficile strains; strain NR-49325): 0.5 µg/mL (≈ 2.92 µM)
- MIC (C. difficile strains; strain NR-49326): 0.5 µg/mL (≈ 2.92 µM)
- MIC (C. difficile strains; strain NR-49327): 0.5 µg/mL (≈ 2.92 µM)
- MIC (C. difficile strains; strain RMA23691): 0.5 µg/mL (≈ 2.92 µM)
- MIC (C. difficile strains; strain RMA23828): 0.5 µg/mL (≈ 2.92 µM)
- MIC (C. difficile strains; strain RMA24531): 0.5 µg/mL (≈ 2.92 µM)
- MIC (C. difficile strains; strain RMA26675): 4 µg/mL (≈ 23.4 µM)
- MIC (C. difficile strains; strain RMA27081): 0.5 µg/mL (≈ 2.92 µM)
- MIC (C. difficile strains; strain RMA27173): 4 µg/mL (≈ 23.4 µM)
- MIC (P. aeruginosa ATCC27853): > 128 µg/mL
- MIC (K. pneumoniae ATCC700603): > 128 µg/mL
- MIC (E. aerogenes ATCC35029): > 128 µg/mL
- MIC (A. baumanii ATCC17961): > 128 µg/mL
- bactericidal or bacteriostatic (C. difficile ATCC 43255 [2]): bactericidal
- MIC [4]: >32 µg/mL
- MIC [5]: >32 µg/mL
- MIC (E. faecium; E. faecium 106 (Van R)): >16 µg/mL
- MIC (E. faecium; Enterococcus faecium, NCTC7171, E. faecium NCTC 7171, read-out: MIC): > 128 µg/mL
- MIC (E. faecium; [6]): > 16 µg/mL
- MIC (S. aureus; S. aureus VRS2): >256 µg/mL
- MIC (S. aureus; Staphylococcus aureus): > 256 µg/mL
- MIC (S. aureus; Staphylococcus aureus, ATCC27660): > 256 µg/mL
- MIC (S. aureus; Staphylococcus aureus, ATCC29213): > 256 µg/mL
